Data from publication PMC12040169 (PLOS Biology, 2025).

assay: in vitro; settings: human, hela cells, % viability

Row | SMILES | viability at 28.5 h, 10 µM [%]
1 | COc1ccc(N(C)C(=O)N[C@@H]2CC[C@@]3(c4ccc(OC)c(OC)c4)CCN(C)[C@H]3C2)cc1 [CBK045653T] | 112
2 | OCc1ncccc1OCCOC1CCCCO1 (centres unmarked) [CBK045702] | 97.5
3 | COc1ccc([C@@]23CC[C@@H](NC(=O)Nc4cccc(Br)n4)C[C@@H]2N(C)CC3)cc1OC [CBK045703] | 85.4
4 | COc1ccc([C@@]23CC[C@@H](NC(=O)Nc4ccc(Cl)nc4)C[C@@H]2N(C)CC3)cc1OC [CBK045764] | 91.9
5 | COc1ccc([C@@]23CCC(CC(=O)O)C[C@@H]2N(C)CC3)cc1OC (some centres unmarked) [CBK045765A] | 107
6 | CCCCc1ccc(S(=O)(=O)n2ccc3c(N4CCNCC4)nccc32)cc1 [CBK045805C] | 100
7 | Cc1ccc(S(=O)(=O)Nc2nc(C)c(C(=O)N3CCN(C)CC3)s2)cc1 [CBK045812] | 88.3
8 | Cc1nc(NS(=O)(=O)c2cc(Cl)sc2Cl)sc1C(=O)N1CCN(C)CC1 [CBK045818] | 106
9 | Oc1cccnc1N1CCNCC1 [CBK045850] | 88.8
10 | Cc1oc(-c2cccc(Cl)c2)cc1C(=O)O [CBK045856] | 78
11 | COc1ccc([C@@]23CC[C@@H](NC(=O)Nc4cc(C)nc(C)c4)C[C@@H]2N(C)CC3)cc1OC [CBK045876] | 90.9
12 | CCCCCCN1CCN(c2nccn(CCOc3cc(F)c(F)cc3F)c2=O)CC1 [CBK045889C] | 113
13 | CCCC(=O)Nc1ccccc1OC1CCNCC1 [CBK045902T] | 98
14 | COc1cc(F)cc(OC2CCNCC2)c1NC(=O)C1CCC1 [CBK045912T] | 92.3
15 | Cc1nn(C)c(N2CCNCC2)c1NC(=O)C(C)c1ccccc1 (centres unmarked) [CBK045929T] | 108
16 | Cc1noc(C)c1NC(=O)N(Cc1ccccc1C(F)(F)F)C1CCC(N)CC1 (centres unmarked) [CBK045963C] | 103
17 | NCc1ccc(CN(Cc2cccc(Cl)c2)C(=O)NC(c2ccccc2)c2ccccc2)cc1 [CBK046087C] | 91.6
18 | NCc1ccc(CN(Cc2cnc(-c3ccccc3)[nH]2)C(=O)Nc2ccc3c(c2)OCO3)cc1 [CBK046158C] | 89
19 | CC(C)(C)c1ccccc1NC(=O)N(CCN)Cc1cc(F)cc(F)c1 [CBK046263C] | 98.6
20 | CC(=O)Nc1c(C#N)cnn1C [CBK046332] | 96

Row | SMILES | viability at 28.5 h, 10 µM [%]
21 | COc1ccccc1-c1nc(C2CCCN2C(=O)CCCC(=O)O)n2ccccc12 (centres unmarked) [CBK046600] | 90.3
22 | COc1ccccc1-c1nc(C2CCCN2C(=O)N[C@@H](C)c2ccccc2)n2ccccc12 (some centres unmarked) [CBK046625] | 109
23 | CC(CC(=O)O)CC(=O)N1CCCC1c1nc(-c2ccc(F)cc2)c2ccccn12 (centres unmarked) [CBK046626] | 99.4
24 | O=C(Nc1ccc2c(c1)CCO2)N1CCCC1c1nc(-c2ccccc2)c2ccccn12 (centres unmarked) [CBK046733] | 117
25 | O=C(O)COCC(=O)N1CCCC(c2nc(-c3ccccc3)c3ccccn23)C1 (centres unmarked) [CBK046806] | 86.1
26 | Cc1ccc(-c2nc(C3CCN(C(=O)NC(C)C)CC3)n3ccccc23)cc1 [CBK046861] | 95
27 | O=C(NC(=O)N1CCC2(CC1)NCCc1c2[nH]c2ccc(O)cc12)c1ccccc1 [CBK046936] | 87.4
28 | O=C(O)c1ccccc1C(=O)N1CCC2(CC1)OCCc1c2[nH]c2ccccc12 [CBK046981] | 94.9
29 | O=C(NC(=O)N1CCC2(C1)NCCc1c2[nH]c2ccccc12)c1ccccc1 (centres unmarked) [CBK046985] | 94.2
30 | C/C(C(=O)O)=C(/C)C(=O)N1CCC2(C1)NCCc1c2[nH]c2ccccc12 (centres unmarked) [CBK046995] | 100
31 | COc1ccc2[nH]c3c(c2c1)CCNC31CCN(C(=O)NC(C)(C)C)CC1 [CBK047069] | 97.4
32 | COc1ccc(-c2nc(C3CCN(C(=O)NC(C)(C)C)CC3)n3ccccc23)cc1 [CBK047080] | 97.4
33 | C[C@H](NC(=O)N1CCC(c2nc(-c3ccccc3)c3ccccn23)CC1)c1ccccc1 [CBK047086] | 92.7
34 | Cc1ccc(CNC(=O)N2CCC3(CC2)OCCc2c3[nH]c3ccccc23)cc1 [CBK047121] | 93.3
35 | COc1ccccc1-c1nc(C2CCCN(C(=O)NCCc3cccs3)C2)n2ccccc12 (centres unmarked) [CBK047163] | 95.5
36 | Cc1ccc2[nH]c3c(c2c1)CCNC31CCN(C(=O)CC(C)CC(=O)O)CC1 (centres unmarked) [CBK047196] | 109
37 | COc1ccc2[nH]c3c(c2c1)CCOC31CCN(C(=O)CC(C)CC(=O)O)CC1 (centres unmarked) [CBK047197] | 100
38 | COc1ccc2c(c1)CC(=O)NC21CCN(C(=O)CCCC(=O)O)CC1 [CBK047208] | 90.3
39 | O=C1Cc2cc3ccccc3cc2C2(CCN(C(=O)c3ccccc3C(=O)O)CC2)N1 [CBK047216] | 94.8
40 | Cc1ccc2[nH]c3c(c2c1)CCNC31CCN(C(=O)[C@@H]2CCCC[C@@H]2C(=O)O)CC1 [CBK047222] | 89.9

Row | SMILES | viability at 28.5 h, 10 µM [%]
41 | O=C(Nc1cccc(Cl)c1)N1CCCC(c2nc(-c3ccccc3)c3ccccn23)C1 (centres unmarked) [CBK047233] | 90.4
42 | O=C(O)c1ccccc1C(=O)N1CCC2(CC1)NCCc1c2[nH]c2ccccc12 [CBK047235] | 83.9
43 | Cc1ccc(-c2nc(C3CCCN(C(=O)NC4CCCCC4)C3)n3ccccc23)cc1 (centres unmarked) [CBK047241] | 94.4
44 | COc1ccc2c(c1)CC(=O)NC21CCN(C(=O)NC(C)C)CC1 [CBK047261] | 95.7
45 | COc1cc2c(cc1OC)C1(CCN(C(=O)Nc3ccc(F)cc3F)CC1)NC(=O)C2 [CBK047264] | 84.8
46 | COc1cc2c(c(OC)c1OC)CC(=O)NC21CCN(C(=O)CC(C)CC(=O)O)CC1 (centres unmarked) [CBK047265] | 94.8
47 | CC(NC(=O)N1CCC2(CC1)NC(=O)Cc1ccccc12)c1cccc2ccccc12 (centres unmarked) [CBK047280] | 84
48 | COc1ccccc1NC(=O)N1CCC2(CC1)NC(=O)Cc1cc3ccccc3cc12 [CBK047284] | 92.1
49 | O=C1Cc2ccccc2C2(CCN(C(=O)NCc3cccc(F)c3)CC2)N1 [CBK047288] | 81
50 | COc1cc2c(c(OC)c1OC)CC(=O)NC21CCN(C(=O)NC(C)(C)C)CC1 [CBK047301] | 94.2
51 | CCOC(=O)c1[nH]c2ccccc2c1NS(=O)(=O)c1ccc(Br)cc1 [CBK047409] | 116
52 | CCOC(=O)c1[nH]c2ccccc2c1NS(=O)(=O)Cc1ccccc1[N+](=O)[O-] [CBK047426] | 94.7
53 | CNC(=O)c1cc(-c2cccc(C)c2)oc1C [CBK047432] | 80.3
54 | CCOC(=O)c1sc(NS(=O)(=O)Cc2ccccc2)nc1C [CBK047448] | 105
55 | CN1CCN(CC(=O)Nc2cc(N3CCOCC3)ccc2[N+](=O)[O-])CC1 [CBK047475] | 92.9
56 | Cc1oc(-c2ccccc2)nc1C(=O)O [CBK047490] | 98.4
57 | CCOC(=O)c1ccccc1NC(=O)N[C@@H]1CC[C@@]2(c3ccc(OC)c(OC)c3)CCN(C)[C@H]2C1 [CBK047494T] | 94.9
58 | C[C@H]1CNCCN1c1nccnc1Cl [CBK047524F] | 88
59 | COc1ccc([C@@]23CC[C@@H](NC(=O)Nc4ccccc4C#N)C[C@@H]2N(C)CC3)cc1OC [CBK047540T] | 96.1
